# Assay results from patent US20230257372A1 (CHONG KUN DANG PHARMACEUTICAL CORP., priority 2020, published 2023).
# Like-named read-outs stand apart in the source and are kept apart here.
# Key:
# human recombinant HDAC1 = biological target: T1, human recombinant HDAC1 (Homo sapiens, UniProt Q13547); assay: HDAC1 enzyme activity inhibition (HDAC Fluorimetric Drug Discovery Kit); assay type: biochemical; details: read-out: HDAC1
# T1 construct: purchased Enzo Life Science, Inc. BML-SE456
# How it was run: (§1)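 Fluorescence from a Fluor de Lys developer step (30 minutes) reports residual deacetylation after a 60-minute, 30° C reaction of […] enzyme with 10 μM substrate and 5-fold compound dilutions.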
# human recombinant HDAC6 = biological target: T2, human recombinant HDAC6 (Homo sapiens, UniProt Q9UBN7); assay: HDAC6 enzyme activity inhibition (HDAC Fluorimetric Drug Discovery Kit); assay type: biochemical
# T2 construct: purchased Calbiochem Inc. 382180
# T2 sequence (Q9UBN7 1-1215): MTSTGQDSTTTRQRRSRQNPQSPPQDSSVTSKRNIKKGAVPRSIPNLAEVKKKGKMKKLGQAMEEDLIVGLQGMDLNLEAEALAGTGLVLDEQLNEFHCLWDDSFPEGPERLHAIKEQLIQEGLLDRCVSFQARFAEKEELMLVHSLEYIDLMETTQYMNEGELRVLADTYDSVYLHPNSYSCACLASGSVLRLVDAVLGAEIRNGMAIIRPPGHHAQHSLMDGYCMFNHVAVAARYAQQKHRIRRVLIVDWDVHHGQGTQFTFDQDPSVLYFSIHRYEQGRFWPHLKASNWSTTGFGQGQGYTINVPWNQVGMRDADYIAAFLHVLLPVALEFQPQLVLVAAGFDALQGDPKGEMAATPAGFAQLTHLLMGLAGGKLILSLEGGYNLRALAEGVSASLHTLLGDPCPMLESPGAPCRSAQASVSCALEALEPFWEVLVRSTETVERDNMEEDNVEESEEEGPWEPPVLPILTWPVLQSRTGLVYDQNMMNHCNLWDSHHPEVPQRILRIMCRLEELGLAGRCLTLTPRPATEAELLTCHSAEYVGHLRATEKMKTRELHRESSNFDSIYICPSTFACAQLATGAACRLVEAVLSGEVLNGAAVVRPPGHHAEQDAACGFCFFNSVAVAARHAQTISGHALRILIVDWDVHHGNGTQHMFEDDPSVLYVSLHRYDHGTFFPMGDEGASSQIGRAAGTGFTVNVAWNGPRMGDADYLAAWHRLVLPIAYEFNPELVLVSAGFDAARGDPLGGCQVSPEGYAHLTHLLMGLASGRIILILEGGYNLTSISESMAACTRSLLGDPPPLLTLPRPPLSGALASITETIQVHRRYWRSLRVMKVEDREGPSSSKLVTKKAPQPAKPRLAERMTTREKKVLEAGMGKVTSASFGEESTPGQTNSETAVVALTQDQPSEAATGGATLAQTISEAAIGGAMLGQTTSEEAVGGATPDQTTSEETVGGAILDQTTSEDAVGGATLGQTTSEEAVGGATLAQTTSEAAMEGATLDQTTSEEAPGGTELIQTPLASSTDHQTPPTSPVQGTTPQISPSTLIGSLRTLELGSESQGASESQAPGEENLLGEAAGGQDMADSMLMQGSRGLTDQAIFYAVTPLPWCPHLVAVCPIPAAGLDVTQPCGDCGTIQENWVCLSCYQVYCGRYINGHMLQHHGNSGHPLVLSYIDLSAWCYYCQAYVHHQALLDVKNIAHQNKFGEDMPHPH
# How it was run: as §1
# [1] = tested on: hippocampal neurons from a Sprague-Dawley (SD) rat fetus; assay: Effect of HDAC6-specific inhibitor on axonal transport of mitochondria in amyloid-beta treated neurons; assay type: cell-based; details: transport velocity of mitochondria in neuronal axon after normalization; vehicle = 100%, amyloid beta treatment group = 0%; compound treatment for three hours
# How it was run: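 Rat E17-18 hippocampal neurons exposed to amyloid-beta fragments […]; after 24 h (day 8 in vitro) compound added for 3 h, mitochondria stained with MitoTracker Red CMXRos. Confocal imaging every 1 s for 1 min gave per-mitochondrion velocity, normalized vehicle = 100%, amyloid-beta = 0%.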
# [2] = human recombinant HDAC1, IC50 calculated with GraphPad Prism
# [3] = human recombinant HDAC6, IC50 calculated with GraphPad Prism
# T1 sequence (Q13547 whole entry): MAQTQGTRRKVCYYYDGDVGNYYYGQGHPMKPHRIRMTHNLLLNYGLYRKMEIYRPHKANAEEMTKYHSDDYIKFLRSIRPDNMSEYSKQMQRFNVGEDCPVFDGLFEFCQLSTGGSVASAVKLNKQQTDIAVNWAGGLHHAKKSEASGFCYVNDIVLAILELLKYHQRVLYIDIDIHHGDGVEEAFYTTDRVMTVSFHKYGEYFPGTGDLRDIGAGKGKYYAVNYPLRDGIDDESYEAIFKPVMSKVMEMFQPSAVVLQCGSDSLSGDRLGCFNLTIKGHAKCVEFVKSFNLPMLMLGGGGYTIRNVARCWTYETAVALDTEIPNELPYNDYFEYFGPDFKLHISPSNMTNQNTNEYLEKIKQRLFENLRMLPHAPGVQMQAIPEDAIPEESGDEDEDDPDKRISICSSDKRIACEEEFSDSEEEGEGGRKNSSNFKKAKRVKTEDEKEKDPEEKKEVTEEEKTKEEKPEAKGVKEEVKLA
Structure (SMILES),"IC50 (human recombinant HDAC1; human recombinant HDAC1, Fluor de Lys substrate, 30° C. 60 minutes)",HDAC6 selectivity (fold) (human recombinant HDAC6; HDAC6 over HDAC1),"IC50 (human recombinant HDAC6; human recombinant HDAC6, same protocol as HDAC1)",IC50 (human recombinant HDAC1; [2]),HDAC6 selectivity (fold) (human recombinant HDAC6; HDAC1 IC50 / HDAC6 IC50),IC50 (human recombinant HDAC6; [3]),Velocity distribution (%) [1]
"CC(C)N1CCN(c2cccc(-c3cn(Cc4ccc(-c5nnc(C(F)F)o5)cc4F)nn3)n2)CC1 [Compound 17363, 2-(difluoromethyl)-5-(3-fluoro-4-((4-(6-(4-isopropylpiperazin-1-yl)pyridin-2-yl)-1H-1,2,3-triazol-1-yl)methyl)phenyl)-1,3,4-oxadiazole]",> 50000 nM,2212 fold,22.6 nM,,,,"** (**, 50%˜100%)"
"FC(F)c1nnc(-c2ccc(Cn3cc(-c4ccc5c(c4)CCN(C4COC4)C5)nn3)nc2)o1 [Compound 4055, 2-(difluoromethyl)-5-(6-((4-(2-(oxetan-3-yl)-1,2,3,4-tetrahydroisoquinolin-6-yl)-1H-1,2,3-triazol-1-yl)methyl)pyridin-3-yl)-1,3,4-oxadiazole]",,,,> 50000 nM,868 fold,57.6 nM,"* (*, 0%˜50%)"
"CC(C)(F)C(=O)Nc1cccc(-c2cn(Cc3ccc(-c4nnc(C(F)F)o4)cn3)nn2)c1 [Compound 3987, N-(3-(1-((5-(5-(difluoromethyl)-1,3,4-oxadiazol-2-yl)pyridin-2-yl)methyl)-1H-1,2,3-triazol-4-yl)phenyl)-2-fluoro-2-methylpropanamide]",,,,> 50000 nM,5494 fold,9.1 nM,"* (*, 0%˜50%)"
Fc1cc(-c2nnc(C(F)F)o2)ccc1Cn1cc(-c2ccc3c(CN4CCOCC4)c[nH]c3c2)nn1 [Compound 4112],,,,> 50000 nM,3125 fold,16 nM,"*** (***, >100%)"
"Cc1ccc(-c2cn(Cc3ccc(-c4nnc(C(F)F)o4)cn3)nn2)cc1 [Compound 3738, 2-(difluoromethyl)-5-(6-((4-(p-tolyl)-1H-1,2,3-triazol-1-yl)methyl)pyridin-3-yl)-1,3,4-oxadiazole]",,,,> 50000 nM,1136 fold,44 nM,"*** (***, >100%)"

# Second part, led by results:
"IC50 (human recombinant HDAC1; human recombinant HDAC1, Fluor de Lys substrate, 30° C. 60 minutes)",HDAC6 selectivity (fold) (human recombinant HDAC6; HDAC6 over HDAC1),"IC50 (human recombinant HDAC6; human recombinant HDAC6, same protocol as HDAC1)",IC50 (human recombinant HDAC1; [2]),HDAC6 selectivity (fold) (human recombinant HDAC6; HDAC1 IC50 / HDAC6 IC50),IC50 (human recombinant HDAC6; [3]),Structure (SMILES),Velocity distribution (%) [1]
,,,> 50000 nM,2415 fold,20.7 nM,"FC(F)c1nnc(-c2ccc(Cn3cc(-c4cccs4)nn3)nc2)o1 [Compound 3902, 2-(difluoromethyl)-5-(6-((4-(thiophen-2-yl)-1H-1,2,3-triazol-1-yl)methyl)pyridin-3-yl)-1,3,4-oxadiazole]","*** (***, >100%)"
,,,> 50000 nM,5617 fold,8.9 nM,"FC(F)c1nnc(-c2ccc(Cn3cc(-c4ccc5[nH]cc(CN6CCOCC6)c5c4)nn3)nc2)o1 [Compound 4187, 4-((5-(1-((5-(5-(difluoromethyl)-1,3,4-oxadiazol-2-yl)pyridin-2-yl)methyl)-1H-1,2,3-triazol-4-yl)-1H-indol-3-yl)methyl)morpholine]","* (*, 0%˜50%)"
,,,> 50000 nM,2232 fold,22.4 nM,"FC(F)c1nnc(-c2ccc(Cn3nnc(-c4cccs4)n3)nc2)o1 [Compound 4232, 2-(difluoromethyl)-5-(6-((5-(thiophen-2-yl)-2H-tetrazol-2-yl)methyl)pyridin-3-yl)-1,3,4-oxadiazole]","** (**, 50%˜100%)"
,,,> 50000 nM,1712 fold,29.2 nM,"CC(=O)Nc1cccc(-c2cn(Cc3ccc(-c4nnc(C(F)F)o4)cc3F)nn2)c1 [Compound 3775, N-(3-(1-(4-(5-(difluoromethyl)-1,3,4-oxadiazol-2-yl)-2-fluorobenzyl)-1H-1,2,3-triazol-4-yl)phenyl)acetamide]","* (*, 0%˜50%)"
